In PubChem BioAssay (NCI):
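Protocol summary: plate cells (96-well), add compound at 5 concentrations, incubate 48 h, interpolate endpoints linearly. TGI is the concentration that stops growth completely.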

Experiments:
Assay in all cases: inhibition of tumour cell growth, NCI panel, 48 h
LOX IMVI melanoma = system: LOX IMVI melanoma
UACC-257 melanoma = system: UACC-257 melanoma
OVCAR-4 ovarian = system: OVCAR-4 ovarian
SW-620 colon = system: SW-620 colon
SF-295 CNS = system: SF-295 CNS
M14 melanoma = system: M14 melanoma
MOLT-4 leukemia = system: MOLT-4 leukemia
UO-31 renal = system: UO-31 renal
SN12C renal = system: SN12C renal
MCF7 breast = system: MCF7 breast
OVCAR-8 ovarian = system: OVCAR-8 ovarian
HOP-92 NSCLC = system: HOP-92 NSCLC
NCI-H522 lung = system: NCI-H522 lung
BT-549 breast = system: BT-549 breast
PC-3 prostate = system: PC-3 prostate
COLO 205 colon = system: COLO 205 colon
HCC-2998 colon = system: HCC-2998 colon
RPMI-8226 leukemia = system: RPMI-8226 leukemia
SK-MEL-28 melanoma = system: SK-MEL-28 melanoma
SR leukemia = system: SR leukemia
EKVX NSCLC = system: EKVX NSCLC
SK-OV-3 ovarian = system: SK-OV-3 ovarian
NCI-H23 lung = system: NCI-H23 lung
OVCAR-5 ovarian = system: OVCAR-5 ovarian
SF-539 CNS = system: SF-539 CNS
U251 CNS = system: U251 CNS
TK-10 renal = system: TK-10 renal
RXF 393 renal = system: RXF 393 renal
K-562 leukemia = system: K-562 leukemia
CAKI-1 renal = system: CAKI-1 renal
HOP-62 NSCLC = system: HOP-62 NSCLC
IGROV1 ovarian = system: IGROV1 ovarian
NCI-H460 lung = system: NCI-H460 lung
NCI/ADR-RES ovarian = system: NCI/ADR-RES ovarian
HCT-116 colon = system: HCT-116 colon
OVCAR-3 ovarian = system: OVCAR-3 ovarian
SF-268 CNS = system: SF-268 CNS
MDA-MB-231 breast = system: MDA-MB-231 breast
A549 NSCLC = system: A549 NSCLC
SNB-19 CNS = system: SNB-19 CNS
MDA-MB-435 = system: MDA-MB-435
SK-MEL-2 melanoma = system: SK-MEL-2 melanoma
SK-MEL-5 melanoma = system: SK-MEL-5 melanoma
A498 renal = system: A498 renal
T-47D breast = system: T-47D breast
ACHN renal = system: ACHN renal
HCT-15 colon = system: HCT-15 colon
SNB-75 CNS = system: SNB-75 CNS
NCI-H226 lung = system: NCI-H226 lung
MALME-3M melanoma = system: MALME-3M melanoma
MDA-N = system: MDA-N
KM12 colon = system: KM12 colon
CCRF-CEM leukemia = system: CCRF-CEM leukemia
786-0 renal = system: 786-0 renal
HS 578T breast = system: HS 578T breast
HL-60(TB) leukemia = system: HL-60(TB) leukemia
DU-145 prostate = system: DU-145 prostate
UACC-62 melanoma = system: UACC-62 melanoma
HT29 colon = system: HT29 colon

Measured: TGI

CCCCC(=O)Nc1ccc2cc(C(=O)OC)c(ON3C(=O)c4ccccc4C3=O)nc2n1
45.9 µM: HCT-116 colon
46.2 µM: TK-10 renal
58.4 µM: OVCAR-8 ovarian
43.3 µM: M14 melanoma
81.2 µM: OVCAR-4 ovarian | SF-268 CNS
52.3 µM: RXF 393 renal
37.6 µM: HOP-62 NSCLC
58.5 µM: NCI-H522 lung
36.1 µM: 786-0 renal
> 100 µM: LOX IMVI melanoma | UACC-257 melanoma | SW-620 colon | SF-295 CNS | MOLT-4 leukemia | SN12C renal | MCF7 breast | BT-549 breast | PC-3 prostate | COLO 205 colon | HCC-2998 colon | RPMI-8226 leukemia | SR leukemia | EKVX NSCLC | SK-OV-3 ovarian | NCI-H23 lung | U251 CNS | K-562 leukemia | NCI/ADR-RES ovarian | OVCAR-3 ovarian | MDA-MB-231 breast | A549 NSCLC | SNB-19 CNS | MDA-MB-435 | SK-MEL-2 melanoma | SK-MEL-5 melanoma | A498 renal | T-47D breast | ACHN renal | HCT-15 colon | KM12 colon | CCRF-CEM leukemia
51.4 µM: NCI-H460 lung
52.4 µM: CAKI-1 renal
43.5 µM: SF-539 CNS
88.2 µM: SNB-75 CNS
80.7 µM: MDA-N
41 µM: IGROV1 ovarian
60.2 µM: NCI-H226 lung
44.4 µM: UO-31 renal
38.5 µM: MALME-3M melanoma
53.5 µM: SK-MEL-28 melanoma
65.3 µM: HOP-92 NSCLC
98.3 µM: OVCAR-5 ovarian

CON(C)C(C#N)=C(C#N)C#N
> 10 µM: LOX IMVI melanoma | OVCAR-4 ovarian | SW-620 colon | HS 578T breast | SF-295 CNS | M14 melanoma | MOLT-4 leukemia | UO-31 renal | SN12C renal | MCF7 breast | OVCAR-8 ovarian | NCI-H522 lung | HL-60(TB) leukemia | DU-145 prostate | PC-3 prostate | COLO 205 colon | HCC-2998 colon | RPMI-8226 leukemia | SK-MEL-28 melanoma | SR leukemia | EKVX NSCLC | SK-OV-3 ovarian | NCI-H23 lung | OVCAR-5 ovarian | SF-539 CNS | U251 CNS | TK-10 renal | RXF 393 renal | K-562 leukemia | UACC-62 melanoma | CAKI-1 renal | HOP-62 NSCLC | IGROV1 ovarian | NCI-H460 lung | NCI/ADR-RES ovarian | HCT-116 colon | OVCAR-3 ovarian | SF-268 CNS | MDA-MB-231 breast | A549 NSCLC | SNB-19 CNS | MDA-MB-435 | SK-MEL-2 melanoma | SK-MEL-5 melanoma | A498 renal | T-47D breast | HT29 colon | ACHN renal | HCT-15 colon | SNB-75 CNS | NCI-H226 lung | MALME-3M melanoma | MDA-N | KM12 colon | CCRF-CEM leukemia

CC1(C)CC(=O)C2=C(C1)OC1=C(C(=O)CC(C)(C)C1)C2CC(c1ccccc1)c1ccc(O)c(O)c1O (stereo not drawn)
> 10 µM: OVCAR-4 ovarian | SW-620 colon | SF-295 CNS | M14 melanoma | UO-31 renal | SN12C renal | OVCAR-8 ovarian | HOP-92 NSCLC | DU-145 prostate | PC-3 prostate | EKVX NSCLC | NCI-H23 lung | OVCAR-5 ovarian | SF-539 CNS | U251 CNS | TK-10 renal | RXF 393 renal | CAKI-1 renal | IGROV1 ovarian | NCI/ADR-RES ovarian | HCT-116 colon | OVCAR-3 ovarian | SF-268 CNS | MDA-MB-231 breast | A549 NSCLC | SNB-19 CNS | MDA-MB-435 | SK-MEL-5 melanoma | HT29 colon | ACHN renal | HCT-15 colon | SNB-75 CNS | NCI-H226 lung | MDA-N | KM12 colon

Cn1c(=O)cc(NCc2ccc(Cl)cc2)[nH]c1=O
69.1 µM: SF-268 CNS
45 µM: HOP-92 NSCLC
> 100 µM: LOX IMVI melanoma | UACC-257 melanoma | OVCAR-4 ovarian | SW-620 colon | SF-295 CNS | M14 melanoma | UO-31 renal | SN12C renal | MCF7 breast | OVCAR-8 ovarian | NCI-H522 lung | BT-549 breast | PC-3 prostate | COLO 205 colon | HCC-2998 colon | RPMI-8226 leukemia | SK-MEL-28 melanoma | EKVX NSCLC | SK-OV-3 ovarian | NCI-H23 lung | OVCAR-5 ovarian | SF-539 CNS | U251 CNS | TK-10 renal | RXF 393 renal | K-562 leukemia | UACC-62 melanoma | CAKI-1 renal | IGROV1 ovarian | NCI-H460 lung | NCI/ADR-RES ovarian | HCT-116 colon | OVCAR-3 ovarian | MDA-MB-231 breast | A549 NSCLC | SNB-19 CNS | MDA-MB-435 | SK-MEL-2 melanoma | SK-MEL-5 melanoma | A498 renal | T-47D breast | HT29 colon | ACHN renal | HCT-15 colon | NCI-H226 lung | MALME-3M melanoma | MDA-N | KM12 colon | 786-0 renal
77.4 µM: HOP-62 NSCLC
84.5 µM: SNB-75 CNS
61.3 µM: HS 578T breast
